Test results published in patent publication US20080242649A1, “New Combination 665” (priority 2007, published 2008).
Like-named read-outs stand apart in the source and are kept apart here.

Experiments:
[1] = system: LPS-induced intra-alveolar neutrophilia; assay: Intra-alveolar neutrophil migration after intratracheal LPS challenge in the CRL:CD rat; type: in vivo
Protocol: Evaluation of Compound Activity on Intra-Alveolar Neutrophil Migration after Intratracheal Challenge with Lipopolysacharride (LPS) in the CRL:CD Rat
LPS challenge in CRL:CD rats causes an influx of neutrophils into the lungs. Under recoverable gaseous anaesthesia (5% isoflorane in oxygen), rats were dosed via the intratracheal route with vehicle (0.05M phosphate, 0.1% Tween 80, 0.6% saline, pH 6), or compound 30 min before challenge with an intratracheal dose of 10 μg/kg LPS.
The rats (250-400 g) were euthanized 4 hr after LPS challenge with 1 mL pentobarbitone sodium. A tracheotomy was performed and a cannula inserted. The airway was then lavaged using 3 mL Isoton at room temperature. The Isoton (BeckmanCoulter, High Wycombe, UK) was left in the airway for 10 seconds before being removed. The bronchio-alveolar lavage (BAL) fluid containing inflammatory cells was placed into a 15 mL centrifuge tube and kept on ice. This process was repeated three times. An aliquot of BAL fluid was removed and the inflammatory cells were counted on Sysmex (Sysmex UK, Milton Keynes). Neutrophils were expressed in millions/animal (mean ±s.e.mean).

[2] = system: guinea pig trachea; assay: Bronchodilator onset in guinea pig isolated tracheal ring contracted with methacholine; conditions: roflumilast 1 μM alone
Protocol: Evaluation of Bronchodilator Activity in the Guinea Pig Isolated Tracheal Ring Preparation
Guinea pigs (300-500 g) were killed by cervical dislocation and the trachea was isolated. The trachea was cut into segments 2-3 cartilage rings in width and suspended in 10 ml organ baths in modified Krebs' solution (mM; NaCl, 90; NaHCO3, 45; KCl, 5; MgSO4.7H2O, 0.5; Na2HPO4.2H2O, 1; CaCl2, 2.25; glucose, 10; pH 7.4) gassed with 5% CO2, 95% […] at 37° C.). The tracheal rings were attached to an isometric force transducer for the measurement of isometric tension. The tissues were washed and a force of 1 g was applied to each tissue. The rings were contracted with methacholine (1 μM). Once the contraction had reached a plateau, vehicle (0.01% DMSO in distilled H2O), compound A (3 nM), roflumilast (1 μM) or a combination of compound A (3 nM) and roflumilast (1 μM) was added and the tissue left until the response had reached a plateau. Data were collected using the Chart 4 software (ADInstruments, Charlgrove, UK). The time to 90% of the maximum effect of the bronchodilator (onset time) was measured and expressed in min (mean ±s.e.mean).

[3] = system: LPS-induced TNFα production; assay: Inhibition of LPS-induced TNFα production in human PBMCs; type: cell-based; conditions: for inhibition at 0.03 µM: Homo sapiens, PBMC
Protocol: Inhibition of Lipopolysacchamide (LPS)-Induced TNFα Production in Human Peripheral Blood Mononuclear Cells
The cells were then incubated with LPS (1 μg/mL) for 4 hours at 37° C. to induce TNFα production. At the end of the incubation period, the plates were centrifuged (300 g, 10 minutes) and 100 μL of the culture supernatant was analysed to quantify the TNFα released using a Fluorescence-linked immunosorbance assay (FLISA) assay kit (R&D Systems). Fluorescence levels were read on an FMAT plate reader. Inhibition curves were fitted using a 4-parameter logistic equation in a non-linear curve fitting routine and activity was expressed as pIC50 (mean ±s.e.mean).

[4] = system: histamine-induced bronchoconstriction; assay: Lung function in anaesthetized guinea-pigs, histamine challenge; type: in vivo, Dunkin-Hartley guinea pig
Protocol: (§1) Evaluation of Lung Function in Anaesthetized Guinea-Pigs
(§2) Male Dunkin-Hartley guinea pigs (300-600 g) were weighed and dosed with vehicle (0.05M phosphate, 0.1% Tween 80, 0.6% saline, pH 6) or compound via the intratracheal route under recoverable gaseous anaesthesia (5% halothane in oxygen). Animals were dosed with compound or vehicle two hours prior to the administration of histamine or methacholine.
(§3) Guinea pigs were anaesthetized with pentobarbitone (1 mL/kg of 60 mg/mL solution i.p.) approximately 30 minutes prior to the first bronchoconstrictor administration. The trachea was cannulated and the animal ventilated using a constant volume respiratory pump (Harvard Rodent Ventilator model 683) at a rate of 60 breath/min and a tidal volume of 5 ml/kg. A jugular vein was cannulated for the administration of histamine, methacholine or maintenance anaesthetic (0.1 mL of pentobarbitone solution, 60 mg/mL, as required).
(§4) The animals were transferred to a Flexivent System (SCIREQ, Montreal, Canada) in order to measure airway resistance. The animals were ventilated (quasi-sinusoidal ventilation pattern) at 60 breaths/min at a tidal volume of 5 mL/kg. A positive end expiratory pressure of 2-3 cmH2O was applied. Respiratory resistance was measured using the Flexivent “snapshot” facility (1 second duration, 1 Hz frequency). Once stable baseline resistance value had been obtained the animals were given histamine or methacholine in ascending doses (0.5, 1, 2, 3 and 5 μg/kg, i.v.) at approximately 4-minute intervals via the jugular catheter. After each administration of bronchoconstrictor the peak resistance value was recorded. Guinea pigs were euthanized with approximately 1.0 mL pentobarbitone sodium (Euthatal) intravenously after the completion of the lung function measurements. Percentage bronchoprotection produced by a compound was calculated at each dose of brochoconstrictor as follows:
(§5) Where % change Rveh is the mean of the maximum percentage change in airway resistance in the vehicle treated group. The results reported were measured after 5 μg/kg histamine or methacholine and were expressed as percentage bronchoprotection (mean ±s.e.mean).

[5] = system: methacholine-induced bronchoconstriction; assay: Lung function in anaesthetized guinea-pigs, methacholine challenge; type: in vivo, Dunkin-Hartley guinea pig
Protocol: as §1, §2, §3, §4, §5

**Q.** Which results are given for `CCCC1O[C@@H]2C[C@H]3[C@@H]4CCC5=CC(=O)C=C[C@]5(C)[C@H]4[C@@H](O)C[C@]3(C)[C@]2(C(=O)CO)O1` (some centres unmarked) [Budesonide, reference compound]?
**A.** inhibition of neutrophilia ([1]; budesonide 0.1 μg/kg intratracheal 30 min prior to LPS): 51%; neutrophils in BAL ([1]; budesonide 0.1 μg/kg intratracheal, vehicle/LPS 14±1.6): 7.1±0.77 million/animal

**Q.** `CNC(=O)c1cc(Cl)c(OC(C)(C)C(=O)O)cc1OC[C@@H](O)CN1CCC2(CC1)Cc1cc(Cl)ccc1O2` [Compound W, 2-{2-Chloro-5-{[(2S)-3-(5-chloro-1′H,3H-spiro[1-benzofuran-2,4′-piperidin]-1′-yl)-2-hydroxypropyl]oxy}-4-[(methylamino)carbonyl]phenoxy}-2-methylpropanoic acid] was tested. Which inhibition of neutrophilia ([1]; Compound W 3 ng/kg intratracheal) did it give?
**A.** 56%

**Q.** And the “neutrophils in BAL” value ([1]; Compound W 3 ng/kg, vehicle/LPS 11±1.8)?
**A.** 6.3±1.1 million/animal

**Q.** For `CC(=O)Nc1ccc(O)cc1OC[C@@](C)(O)CNC1CCN(Cc2ccc(Cl)cc2)CC1` [Compound X, N-{2-[((2S)-3-{[1-(4-chlorobenzyl)piperidin-4-yl]amino}-2-hydroxy-2-methylpropyl)oxy]-4-hydroxyphenyl}acetamide], which inhibition of neutrophilia ([1]; Compound X 30 μg/kg intratracheal) is on record?
**A.** 30%

**Q.** What about the “neutrophils in BAL” value ([1]; Compound X 30 μg/kg, vehicle/LPS 12±1.7) of the same molecule?
**A.** 8.5±0.75 million/animal

**Q.** What does the source list for `O=C(Nc1c(Cl)cncc1Cl)c1ccc(OC(F)F)c(OCC2CC2)c1` [Roflumilast, 3-(cyclopropylmethoxy)-N-(3,5-dichloro-4-pyridinyl)-4-(difluoromethoxy)benzamide, reference compound]?
**A.** onset time (time to 90% of the maximum effect) [2]: 26 ± 1.4 min; inhibition at 0.03 µM ([3]; roflumilast 30 nM alone, PBMCs, LPS 1 μg/mL, read-out: inhibition of LPS-induced TNFα production): 70 ± 4.1%; inhibition at 0.03 µM ([3]; roflumilast 30 nM in the presence of 30 nM compound A, read-out: maximum inhibition of TNFα production): 92 ± 0.4%; maximum inhibition of TNFα production ([3]; roflumilast 30 nM in the presence of 3 nM compound A): 82±2.3%; inhibition of histamine-induced bronchoconstriction ([4]; roflumilast 1 mg/kg intratracheal 2 h before, histamine 5 μg/kg i.v.): 35%; increase in bronchoconstriction ([4]; roflumilast 1 mg/kg intratracheal, histamine 5 μg/kg, vehicle 1100±161%): 695±177%

**Q.** Which increase in resistance ([5]; tiotropium bromide 0.03 pg/kg intratracheal, methacholine 5 μg/kg, vehicle 1898±211%) does the source give for `C[N+]1(C)[C@@H]2C[C@@H](OC(=O)C(O)(c3cccs3)c3cccs3)C[C@H]1[C@@H]1O[C@@H]12` [tiotropium bromide, reference compound] here?
**A.** 1656±269%

**Q.** And the “inhibition of methacholine-induced bronchoconstriction” value ([5]; tiotropium bromide intratracheal 2 h before, methacholine 5 μg/kg i.v.)?
**A.** 13%
